Measurements published in publication PMC12707362, “Targeting Aurora Kinases as Essential Cell‐Cycle Regulators to Deliver Multi‐Stage Antimalarials Against Plasmodium Falciparum” (Angewandte Chemie (International Ed. in English), 2025).

Biological target: recombinant PvPI4Kβ (Plasmodium vivax, UniProt A5KB26)
Assay: ADP-Glo kinase assay, PvPI4Kβ
Type: biochemical
Settings: not given
Text: (§1) Full-length PfPKG (PF3D7_1436600)^[19] and PvPI4Kβ (PVX_098050)^[20] recombinant proteins were expressed in E. coli and baculovirus-insect cell expression systems. The kinase domain of PfCLK3 (PF3D7_1114700, Gln317 to Ser694) was expressed in E. coli Rosetta™(DE3)pLysS cells (kind gift from Rafael M. Couñago, CQMED, University of Campinas). Briefly, the N-terminal His-tagged kinases were purified using immobilized metal affinity chromatography, followed by anion exchange chromatography in the case of PfPKG, and size exclusion chromatography. Dose-response kinase inhibition assays were carried out using the ADP-Glo kinase assay kit^[21], with 1 nM PfPKG, 10 μM ATP, 20 μM […]-NH2, 1% (v/v) DMSO and inhibitor in PKG assay buffer (25 mM HEPES pH 7.4, 0.1 mg/mL BSA, 0.01% (v/v) Triton-X 100, 20 mM MgCl2, 2 mM DTT, 10 μM cGMP); or 6 nM PvPI4Kβ, 10 μM ATP, 0.1 mg/ml L-alpha-phosphatidylinositol, 1% (v/v) DMSO and inhibitor in PI4Kβ assay buffer (25 mM HEPES pH 7.4, 100 mM NaCl, 3 mM MgCl2, 1 mM DTT, 0.025 mg/ml BSA, 0.2% (v/v) Triton-X-100); or 15 nM PfCLK3, 10 μM ATP, 20 μM myelin basic protein, 1% (v/v) DMSO and inhibitor in assay buffer (50 mM HEPES pH 7.4, 0.1 mg/mL BSA, 0.01% (v/v) Triton-X 100, 20 mM MgCl2, 2 mM DTT). […] Mean IC50 values were calculated from two independent experiments, each with technical duplicates.

Sequence of recombinant PvPI4Kβ (A5KB26 1-1525): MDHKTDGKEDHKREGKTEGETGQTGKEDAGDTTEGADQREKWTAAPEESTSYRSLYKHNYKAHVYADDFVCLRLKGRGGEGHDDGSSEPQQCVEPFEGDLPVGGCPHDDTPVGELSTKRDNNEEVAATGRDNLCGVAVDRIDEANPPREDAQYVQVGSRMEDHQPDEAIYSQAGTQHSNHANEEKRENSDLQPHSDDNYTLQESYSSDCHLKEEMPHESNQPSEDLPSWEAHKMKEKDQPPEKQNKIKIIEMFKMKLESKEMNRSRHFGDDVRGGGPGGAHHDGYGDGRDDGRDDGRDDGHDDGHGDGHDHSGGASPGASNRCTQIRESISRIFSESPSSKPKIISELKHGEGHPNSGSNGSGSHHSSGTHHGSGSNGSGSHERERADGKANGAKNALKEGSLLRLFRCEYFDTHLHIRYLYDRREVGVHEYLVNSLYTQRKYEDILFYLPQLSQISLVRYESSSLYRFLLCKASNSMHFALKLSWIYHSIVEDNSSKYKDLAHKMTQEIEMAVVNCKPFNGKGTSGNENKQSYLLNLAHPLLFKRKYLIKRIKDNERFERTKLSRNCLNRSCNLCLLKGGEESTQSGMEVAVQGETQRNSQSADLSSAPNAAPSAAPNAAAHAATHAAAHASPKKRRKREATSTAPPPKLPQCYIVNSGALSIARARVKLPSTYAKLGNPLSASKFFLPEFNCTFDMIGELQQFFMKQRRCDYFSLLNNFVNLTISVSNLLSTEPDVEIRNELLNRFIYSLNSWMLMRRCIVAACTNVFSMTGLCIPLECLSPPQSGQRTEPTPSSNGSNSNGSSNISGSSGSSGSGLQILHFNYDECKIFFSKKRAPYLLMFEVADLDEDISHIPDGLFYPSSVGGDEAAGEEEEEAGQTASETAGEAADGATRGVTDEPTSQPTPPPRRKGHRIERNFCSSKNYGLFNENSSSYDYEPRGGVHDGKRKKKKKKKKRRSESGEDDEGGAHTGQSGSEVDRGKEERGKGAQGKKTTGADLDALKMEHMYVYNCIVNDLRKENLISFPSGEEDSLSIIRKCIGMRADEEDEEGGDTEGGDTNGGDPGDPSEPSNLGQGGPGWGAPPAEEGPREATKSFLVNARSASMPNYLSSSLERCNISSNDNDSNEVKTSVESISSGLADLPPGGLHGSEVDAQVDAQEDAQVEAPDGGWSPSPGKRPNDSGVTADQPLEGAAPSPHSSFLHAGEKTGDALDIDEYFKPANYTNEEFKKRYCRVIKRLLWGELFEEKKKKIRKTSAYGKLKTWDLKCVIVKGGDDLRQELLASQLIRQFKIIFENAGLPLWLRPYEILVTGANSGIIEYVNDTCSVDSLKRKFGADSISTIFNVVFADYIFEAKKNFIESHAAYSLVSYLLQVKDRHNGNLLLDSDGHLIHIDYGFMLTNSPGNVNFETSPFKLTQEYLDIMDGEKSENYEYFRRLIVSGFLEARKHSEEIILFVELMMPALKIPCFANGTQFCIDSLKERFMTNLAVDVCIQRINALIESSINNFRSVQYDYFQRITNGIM

Structure (SMILES)	IC50
O=C(Nc1cccc(Nc2nccc(Nc3cccc(C(F)(F)F)c3)n2)c1)C1CC1 [Aki III, Aurora kinase inhibitor III]	> 10 µM

Same assay, conditions: 10 µM ATP; read-out: IC50 PvPI4Kβ

Structure (SMILES)	IC50
O=C(Nc1c[nH]nc1-c1nc2ccc(CN3CCOCC3)cc2[nH]1)NC1CC1 [AT83, AT9283]	> 10 µM
COc1cc2c(Nc3ccc(NC(=O)c4ccccc4)cc3)ncnc2cc1OCCCN1CCOCC1 [ZM-39, ZM-447439]	> 10 µM
COc1cc(N2CCC(N3CCN(C)CC3)CC2)ccc1Nc1ncc(Cl)c(Nc2ccccc2S(=O)(=O)C(C)C)n1 [TAE684, NVP-TAE684]	> 10 µM
CCN(CCO)CCCOc1ccc2c(Nc3cc(CC(=O)Nc4cccc(F)c4)n[nH]3)ncnc2c1 [AZD-1152, AZD-1152-HQPA]	> 10 µM
CCN1CCN(C(=O)Cc2ccc(Nc3ncc(F)c(Nc4ccc(C(=O)Nc5ccccc5Cl)cc4)n3)cc2)CC1 [AAi I, Aurora A Inhibitor I]	> 10 µM

Biological target: T1, recombinant PfCLK3 kinase domain (Plasmodium falciparum, UniProt Q8IIL5)
T1 sequence (Q8IIL5 317-694): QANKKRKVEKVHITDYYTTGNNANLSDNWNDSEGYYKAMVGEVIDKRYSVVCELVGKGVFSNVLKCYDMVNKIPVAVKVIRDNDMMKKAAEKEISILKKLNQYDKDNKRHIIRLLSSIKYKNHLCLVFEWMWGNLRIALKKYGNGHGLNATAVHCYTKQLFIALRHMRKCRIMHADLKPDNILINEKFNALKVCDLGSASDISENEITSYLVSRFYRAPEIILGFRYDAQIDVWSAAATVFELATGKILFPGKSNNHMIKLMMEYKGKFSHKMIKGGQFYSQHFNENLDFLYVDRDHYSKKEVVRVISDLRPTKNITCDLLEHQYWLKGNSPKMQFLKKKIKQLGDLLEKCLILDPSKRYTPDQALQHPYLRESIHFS
Assay: ADP-Glo kinase assay, PfCLK3
Type: biochemical
Settings: not given
Text: as §1

Structure (SMILES)	IC50
O=C(Nc1cccc(Nc2nccc(Nc3cccc(C(F)(F)F)c3)n2)c1)C1CC1 [Aki III, Aurora kinase inhibitor III]	> 10 µM

Same assay, conditions: 10 µM ATP; read-out: IC50 PfCLK3

Structure (SMILES)	IC50
O=C(Nc1c[nH]nc1-c1nc2ccc(CN3CCOCC3)cc2[nH]1)NC1CC1 [AT83, AT9283]	0.1 µM
COc1cc2c(Nc3ccc(NC(=O)c4ccccc4)cc3)ncnc2cc1OCCCN1CCOCC1 [ZM-39, ZM-447439]	> 10 µM
COc1cc(N2CCC(N3CCN(C)CC3)CC2)ccc1Nc1ncc(Cl)c(Nc2ccccc2S(=O)(=O)C(C)C)n1 [TAE684, NVP-TAE684]	> 10 µM
CCN(CCO)CCCOc1ccc2c(Nc3cc(CC(=O)Nc4cccc(F)c4)n[nH]3)ncnc2c1 [AZD-1152, AZD-1152-HQPA]	> 10 µM
CCN1CCN(C(=O)Cc2ccc(Nc3ncc(F)c(Nc4ccc(C(=O)Nc5ccccc5Cl)cc4)n3)cc2)CC1 [AAi I, Aurora A Inhibitor I]	2.4 µM

Biological target: T2, recombinant PfPKG (Plasmodium falciparum, UniProt Q8I719)
T2 construct: Full-length PfPKG (PF3D7_1436600); His tag (N); made in house; host or cells: E. coli (first-named host, read as 'respectively')
T2 sequence (Q8I719 whole entry): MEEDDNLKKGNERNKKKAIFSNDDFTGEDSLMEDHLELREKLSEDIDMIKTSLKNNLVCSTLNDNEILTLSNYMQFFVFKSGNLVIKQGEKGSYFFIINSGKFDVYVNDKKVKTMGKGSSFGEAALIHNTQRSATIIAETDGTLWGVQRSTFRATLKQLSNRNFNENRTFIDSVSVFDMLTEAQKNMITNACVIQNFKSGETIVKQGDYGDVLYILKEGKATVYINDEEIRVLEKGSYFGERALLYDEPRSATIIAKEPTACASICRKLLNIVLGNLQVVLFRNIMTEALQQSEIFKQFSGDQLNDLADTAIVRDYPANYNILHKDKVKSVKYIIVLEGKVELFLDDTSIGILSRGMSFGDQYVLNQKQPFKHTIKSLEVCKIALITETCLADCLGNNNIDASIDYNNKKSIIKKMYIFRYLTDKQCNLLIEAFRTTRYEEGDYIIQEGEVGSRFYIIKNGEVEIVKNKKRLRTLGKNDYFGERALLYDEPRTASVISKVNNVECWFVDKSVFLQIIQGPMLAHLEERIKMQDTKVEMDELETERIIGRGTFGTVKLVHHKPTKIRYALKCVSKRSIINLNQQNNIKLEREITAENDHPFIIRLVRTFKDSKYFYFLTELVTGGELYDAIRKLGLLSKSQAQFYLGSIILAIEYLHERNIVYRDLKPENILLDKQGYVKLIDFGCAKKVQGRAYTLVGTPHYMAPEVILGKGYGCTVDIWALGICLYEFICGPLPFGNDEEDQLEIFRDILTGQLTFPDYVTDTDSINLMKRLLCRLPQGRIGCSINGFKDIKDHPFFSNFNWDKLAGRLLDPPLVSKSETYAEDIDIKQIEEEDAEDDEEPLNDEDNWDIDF
Assay: ADP-Glo kinase assay, PfPKG
Type: biochemical
Settings: not given
Text: as §1

Structure (SMILES)	IC50
O=C(Nc1c[nH]nc1-c1nc2ccc(CN3CCOCC3)cc2[nH]1)NC1CC1 [AT83, AT9283]	9.3 µM
COc1cc2c(Nc3ccc(NC(=O)c4ccccc4)cc3)ncnc2cc1OCCCN1CCOCC1 [ZM-39, ZM-447439]	> 10 µM
COc1cc(N2CCC(N3CCN(C)CC3)CC2)ccc1Nc1ncc(Cl)c(Nc2ccccc2S(=O)(=O)C(C)C)n1 [TAE684, NVP-TAE684]	2 µM
CCN(CCO)CCCOc1ccc2c(Nc3cc(CC(=O)Nc4cccc(F)c4)n[nH]3)ncnc2c1 [AZD-1152, AZD-1152-HQPA]	> 10 µM
CCN1CCN(C(=O)Cc2ccc(Nc3ncc(F)c(Nc4ccc(C(=O)Nc5ccccc5Cl)cc4)n3)cc2)CC1 [AAi I, Aurora A Inhibitor I]	1.7 µM

Same assay, conditions: 10 µM ATP; read-out: IC50 PfPKG

Structure (SMILES)	IC50
O=C(Nc1cccc(Nc2nccc(Nc3cccc(C(F)(F)F)c3)n2)c1)C1CC1 [Aki III, Aurora kinase inhibitor III]	2.7 µM

System: not listed separately
Assay: Cytotoxicity counter-screening (MTT), CHO
Settings: Chinese hamster
Method: (§2) HepG2 and CHO cells were maintained at 37 °C, under a humidified atmosphere of 5% CO2, in DMEM high glucose media (Gibco) supplemented with 10% heat-inactivated FBS and 1% (v/v) Penicillin-Streptomycin antibiotics. […] The supernatant was discarded, and the cell pellet was resuspended in 1 mL DMEM media for cell counting by Trypan Blue. To determine the toxicity, cells were resuspended and seeded at a concentration of 1x10^4 cells/well in a 96-well plate and incubated for 24 h^[9,10]. Cells were treated in duplicate with a 10-fold serial dilution starting at 100 ug/mL of inhibitor in new media. After 48 h incubation, the viable cells were measured using the MTT tetrazolium reduction assay, where sterile 25 µL of a 5 mg/mL MTT was added to each well and incubated for 4 h before the […] formazan crystals were dissolved with 100 µL DMSO (Merck) per well. The absorbance, a measure of intracellular reduction of MTT, was measured at 540 nm (Multiskan GO). Emetine (50 µM) was included as a positive drug control, and the background was subtracted from all data before being normalised to the untreated^[9,10].

Structure (SMILES)	CC50 at 48 h
O=C(Nc1c[nH]nc1-c1nc2ccc(CN3CCOCC3)cc2[nH]1)NC1CC1 [AT83, AT9283]	4.5 ± 2.1 µM
COc1cc(N2CCC(N3CCN(C)CC3)CC2)ccc1Nc1ncc(Cl)c(Nc2ccccc2S(=O)(=O)C(C)C)n1 [TAE684, NVP-TAE684]	2 µM
CCN(CCO)CCCOc1ccc2c(Nc3cc(CC(=O)Nc4cccc(F)c4)n[nH]3)ncnc2c1 [AZD-1152, AZD-1152-HQPA]	> 15 µM
CCN1CCN(C(=O)Cc2ccc(Nc3ncc(F)c(Nc4ccc(C(=O)Nc5ccccc5Cl)cc4)n3)cc2)CC1 [AAi I, Aurora A Inhibitor I]	3.6 µM

Same assay, conditions: Chinese hamster, CHO cells

Structure (SMILES)	CC50 at 48 h
COc1cc2c(Nc3ccc(NC(=O)c4ccccc4)cc3)ncnc2cc1OCCCN1CCOCC1 [ZM-39, ZM-447439]	> 15 µM
O=C(Nc1cccc(Nc2nccc(Nc3cccc(C(F)(F)F)c3)n2)c1)C1CC1 [Aki III, Aurora kinase inhibitor III]	2.4 µM

System: immature (stage II/III) gametocytes, P. falciparum 3D7elo1-pfs16-CBG99
Assay: Luciferase reporter assay, immature gametocytes
Type: cell-based, Plasmodium falciparum
Settings: 48 h
Method: (§3) P. falciparum drug sensitive NF54 (PfNF54) and drug-resistant Dd2 (PfDd2, chloroquine, pyrimethamine and mefloquine resistant) strains were cultured in vitro in human O^+/A^+ erythrocytes (5% hematocrit) in complete medium at 2–5% parasitemia, 37 °C, shaking at 60 rpm under hypoxic conditions (90% N2, 5% O2 and 5% CO2). Immature and mature gametocytes were produced from P. falciparum 3D7elo1-pfs16-CBG99 (kind gift from Pietro Alano, ISS, Italy) ^[1] as described^[2,3] by simultaneously applying nutrient starvation and decreasing hematocrit to induce >97% ring-stage ABS parasites (0.5% parasitemia, 6% hematocrit). Gametocytogenesis was followed with daily media changes (including glucose) and ABS parasites removed with 50 mM N-acetylglucosamine (day 1–4 for stage II/III; days 3–7 for stage IV/V).
(§4) All inhibitors were dissolved in dimethyl sulfoxide (DMSO). Antiplasmodium activity of selected anti-cancer inhibitors was determined on P. falciparum NF54 and Dd2 strains, measuring SYBR Green I fluorescence (485 nm excitation, 538 nm emission) as an indicator of proliferation^[4]. Ring-stage ABS parasites (1% parasitemia, 1% hematocrit) were treated with compounds for 96 h at 37 °C with chloroquine disulphate (0.5 μM) as positive drug control. The activity of the inhibitors was tested against immature (>95% stage II/III) and late-stage (>90% stage IV/V) gametocytes using a luciferase reporter assay on 3D7elo1-pfs16-CBG99 ^[1]. […] Luciferase activity was determined using a non-lysing D-luciferin substrate (1 mM in 0.1 M citrate buffer, pH 5.5, 100 μL) and bioluminescence was detected with a GloMax® - Multi Detection System with Instinct® software.

Structure (SMILES)	Pf Early stage gametocyte %inhibition @ 5 µM
COc1cc(N2CCC(N3CCN(C)CC3)CC2)ccc1Nc1ncc(Cl)c(Nc2ccccc2S(=O)(=O)C(C)C)n1 [TAE684, NVP-TAE684]	65,4 ± 1,7%
CCN1CCN(C(=O)Cc2ccc(Nc3ncc(F)c(Nc4ccc(C(=O)Nc5ccccc5Cl)cc4)n3)cc2)CC1 [AAi I, Aurora A Inhibitor I]	73,0 ± 3,1%

Same assay, conditions: Plasmodium falciparum, 48 h, read-out: Pf Early stage gametocyte %inhibition @ 5 µM

Structure (SMILES)	inhibition at 5 µM
O=C(Nc1c[nH]nc1-c1nc2ccc(CN3CCOCC3)cc2[nH]1)NC1CC1 [AT83, AT9283]	53.5%
COc1cc2c(Nc3ccc(NC(=O)c4ccccc4)cc3)ncnc2cc1OCCCN1CCOCC1 [ZM-39, ZM-447439]	32.7%
O=C(Nc1cccc(Nc2nccc(Nc3cccc(C(F)(F)F)c3)n2)c1)C1CC1 [Aki III, Aurora kinase inhibitor III]	27.7%
COc1cc(N2CCC(N3CCN(C)CC3)CC2)ccc1Nc1ncc(Cl)c(Nc2ccccc2S(=O)(=O)C(C)C)n1 [TAE684, NVP-TAE684]	~70%
CCN(CCO)CCCOc1ccc2c(Nc3cc(CC(=O)Nc4cccc(F)c4)n[nH]3)ncnc2c1 [AZD-1152, AZD-1152-HQPA]	31.1%
CCN1CCN(C(=O)Cc2ccc(Nc3ncc(F)c(Nc4ccc(C(=O)Nc5ccccc5Cl)cc4)n3)cc2)CC1 [AAi I, Aurora A Inhibitor I]	~70%

System: late-stage (stage IV/V) gametocytes, P. falciparum 3D7elo1-pfs16-CBG99
Assay: Luciferase reporter assay, late-stage gametocytes
Type: cell-based
Settings: Plasmodium falciparum, 48 h, read-out: Pf Late stage gametocyte %inhibition @ 5 µM
Method: as §3, §4

Structure (SMILES)	inhibition at 5 µM
O=C(Nc1c[nH]nc1-c1nc2ccc(CN3CCOCC3)cc2[nH]1)NC1CC1 [AT83, AT9283]	48.9%
COc1cc2c(Nc3ccc(NC(=O)c4ccccc4)cc3)ncnc2cc1OCCCN1CCOCC1 [ZM-39, ZM-447439]	21.5%
O=C(Nc1cccc(Nc2nccc(Nc3cccc(C(F)(F)F)c3)n2)c1)C1CC1 [Aki III, Aurora kinase inhibitor III]	3.5%
COc1cc(N2CCC(N3CCN(C)CC3)CC2)ccc1Nc1ncc(Cl)c(Nc2ccccc2S(=O)(=O)C(C)C)n1 [TAE684, NVP-TAE684]	50.8%
CCN(CCO)CCCOc1ccc2c(Nc3cc(CC(=O)Nc4cccc(F)c4)n[nH]3)ncnc2c1 [AZD-1152, AZD-1152-HQPA]	38.2%
CCN1CCN(C(=O)Cc2ccc(Nc3ncc(F)c(Nc4ccc(C(=O)Nc5ccccc5Cl)cc4)n3)cc2)CC1 [AAi I, Aurora A Inhibitor I]	48.7%

System: not listed separately
Assay: Cytotoxicity counter-screening (MTT), HepG2
Settings: human, HepG2 CC50, 48 h, MTT
Method: as §2

Structure (SMILES)	CC50 at 48 h
O=C(Nc1c[nH]nc1-c1nc2ccc(CN3CCOCC3)cc2[nH]1)NC1CC1 [AT83, AT9283]	12.9 ± 4.5 µM
COc1cc(N2CCC(N3CCN(C)CC3)CC2)ccc1Nc1ncc(Cl)c(Nc2ccccc2S(=O)(=O)C(C)C)n1 [TAE684, NVP-TAE684]	8.8 µM
CCN(CCO)CCCOc1ccc2c(Nc3cc(CC(=O)Nc4cccc(F)c4)n[nH]3)ncnc2c1 [AZD-1152, AZD-1152-HQPA]	> 15 µM
CCN1CCN(C(=O)Cc2ccc(Nc3ncc(F)c(Nc4ccc(C(=O)Nc5ccccc5Cl)cc4)n3)cc2)CC1 [AAi I, Aurora A Inhibitor I]	5.1 µM

Same assay, conditions: human, HepG2 cells, HepG2 CC50, 48 h, MTT

Structure (SMILES)	CC50 at 48 h
COc1cc2c(Nc3ccc(NC(=O)c4ccccc4)cc3)ncnc2cc1OCCCN1CCOCC1 [ZM-39, ZM-447439]	> 15 µM
O=C(Nc1cccc(Nc2nccc(Nc3cccc(C(F)(F)F)c3)n2)c1)C1CC1 [Aki III, Aurora kinase inhibitor III]	18.4 µM
